In test [1] the test system is Neonatal Human Epidermal Melanocytes (NHEM) and HaCat. Kind of test: Reduction in melanin content assay (MCA) in melanocyte/keratinocyte co-culture. The settings on record: 72 hours treatment, relative to vehicle control.
The test system of another test is Xanthomonas oryzae. The settings on record: dilute solution sprayed on rice inoculated with Xanthomonas oryzae; cited from earlier work.

Consider `CCc1ccc(O)cc1O` [Ethyl resorcinol, reference compound], for which the “Reduction in melanin content” value in test [1] (0.00014 wt % active (Example A)) was determined as 21.5%.

For `C=C1C(=O)OC2C[C@]3(C)C(CC12)C(=C)C(O)C[C@H]3O` (some centres unmarked) [Granilin], the “Decrease of infection on the leaves” value in the test with Xanthomonas oryzae is on record as “about 75%”. Further, the “Reduction in melanin content” value in test [1] (0.0005 wt % active (Example 1)) was determined as 30.4%; in test [1] (0.00075 wt % active (Example 2)) it was 47.6%; in test [1] (0.001 wt % active (Example 3)), 52.3%.
